US9439980B2, “Thymidylate kinase fusions and uses thereof” (priority 2008, dated 2016)

System: Jurkat cells
Experiment: HPLC determination of AZT metabolites in cells treated with 100 μM AZT
Assay type: cell-based, human
Conditions: 36 hrs
Method: The cells were cultured in the presence of 100 μM AZT for 36 hrs. 10^7 cells were homogenized by sonication in 100 μl of 5% (w/v) trichloroacetic acid. The supernatant is collected after homogenate had been centrifuged at 10,000×g for 15 min at 4° C. The trichloroacetic acid was removed by extraction with an equal volume of 20% tri-n-octylamine in pentane. The neutralized aqueous fraction is directly injected into HPLC. Separation of AZT and its metabolites was performed on a C18 column (Waters) with a mobile phase composed of 0.2 M phosphate buffer containing 4 mM tetrabutylammonium hydrogen sulfate (pH 7.5) and acetonitrile in the ratio of 97:3 (v/v). The mobile phase was pumped at a flow rate of 1.5 ml/min. The UV absorbance was monitored at 270 nm. Five million cell equivalents were injected and analyzed in triplicate.

## Cc1cn([C@H]2C[C@H](N=[N+]=[N-])[C@@H](CO)O2)c(=O)[nH]c1=O [AZT, 3′-azido-3′-deoxythymidine]
  conversion ratio of AZT-TP to AZT-MP in non-transduced cells: 0.02
